Test results from patent US6310051A, “Use of chelating agents in the treatment of atherosclerotic conditions” (Nycomed Imaging AS, priority 1997, dated 2001).

What was measured:
human LDL = test: Copper-catalyzed oxidation of human LDL in vitro, increase in absorbance at 234 nm (diene-products); type: biochemical; details: 5 μM CuCl2, 30° C., PBS; for inhibition of LDL oxidation, concentration dependence: absorbance at 234 nm over 225 minutes; for inhibition of LDL oxidation at 5 μM: 5 μM compound; for inhibition of LDL oxidation at 5 μM / inhibition of LDL oxidation at 10 μM: 234 nm; for inhibition of LDL oxidation at 10 μM: 10 μM compound
Experimental: Copper-catalyzed LDL-oxidation was monitored by following the increase in absorbance at wavelength 234 nm over time (representing increase in diene-products).
Human LDL (1.025<d<1.050 g/ml) was freshly isolated (from sera of normolipidemic donors who had fasted overnight) by sequential ultracentrifugation, in the presence of EDTA (1.4 mg/ml) to inihibit lipid peroxidation. LDL was finally dialyzed under nitrogen against 10 mM phosphate buffer with 160 mM NaCl, pH 7.4 (PBS), for 24 h at 4° C.
Assays were performed at 30° C. in PBS by mixing 200 μl of the LDL-containing dialysate to PBS to a final volume of 2000 μl. The LDL-oxidation was started by adding 5 μM CuCl2 and the changes in absorbance at wavelength 234 nm was followed over 225 minutes.

[1] = Plasma metallo-PLED by HPLC after oral (intragastric) administration to rats; type: in vivo; details: rat, 100 μmol/kg MnPLED into the stomach, 5 minutes after administration
Experimental: In order to get a rough estimate of the bioavailability of MnPLED after oral administration, rats were instilled with MnPLED into the stomach and the plasma concentrations of metallo-PLED was determined at various times after administration.
100 μmol/kg MnPLED was instilled into the stomach. Blood (ca 4.5 ml) was withdrawn by cardiac puncture (under CO2 -anaesthesia) and collected in tubes containing heparin (trace metal analysis tubes), 5, 30, 60, 120 minutes and 24 hours after oral administration (2 rats for each time point). Plasma was prepared by centrifugation and ultrafiltration and metallo-PLED was determined by HPLC as described by Toft et al. 1997 (Acta Radiologica 38: 677-689).

Substance: MnDPDP
- inhibition of LDL oxidation, concentration dependence (human LDL): inhibited LDL oxidation in a concentration-dependent manner
- inhibition of LDL oxidation at 5 μM (human LDL): more than 50%
- inhibition of LDL oxidation at 10 μM (human LDL): almost complete inhibition

Substance: dihydrogen [N,N'-ethylenebis [N-[[3-hydroxy-5-(hydroxymethyl)-2-methyl-4-pyridyl]methyl] glycinato] (4-)] manganate(2-) [MnPLED]
- inhibition of LDL oxidation, concentration dependence (human LDL): inhibited LDL oxidation in a concentration-dependent manner
- inhibition of LDL oxidation at 5 μM (human LDL): more than 50%
- inhibition of LDL oxidation at 10 μM (human LDL): almost complete inhibition
- presence of MnPLED in plasma ([1]; one animal): may indicate the presence of small amounts of MnPLED in plasma
- transmetallation of MnPLED into ZnPLED ([1]; plasma): most of the MnPLED has already been transmetallated into ZnPLED
